ChEMBL document CHEMBL3853262 (Medchemcomm, 2016)

Tests used:
Format in all cases: functional, cell-based
[1] = system: ASPC1; test: Proapoptotic activity in human AsPC1 cells by annexin V-FITC/propidium iodide staining-based capillary cytometric method
[2] = system: BXPC-3; test: Proapoptotic activity in human BxPC3 cells by annexin V-FITC/propidium iodide staining-based capillary cytometric method
[3] = system: NTERA-2-cl-D1; test: Proapoptotic activity in human NT2/D1 cells by annexin V-FITC/propidium iodide staining-based capillary cytometric method
[4] = system: BJ; test: Proapoptotic activity in human BJ cells by annexin V-FITC/propidium iodide staining-based capillary cytometric method

Nc1nc(-c2cccc(NC(=O)c3cc4cc(F)ccc4[nH]3)c2)c[nH]1
EC50 [1]: 27 µM | EC50 [2]: 28 µM | EC50 [3]: 13 µM | EC50 [4]: 16 µM
